Data from patent US20220152031A1, “PYRIDAZINONES AND METHODS OF USE THEREOF” (Goldfinch Bio, Inc., priority 2019, published 2022).
Like-named read-outs stand apart in the source and are kept apart here.

Molecular target: T1, TRPC4 (Homo sapiens, UniProt Q9UBN4)
T1 construct: expressed in transfected cells
T1 sequence (Q9UBN4 1-982 isoform Q9UBN4-5): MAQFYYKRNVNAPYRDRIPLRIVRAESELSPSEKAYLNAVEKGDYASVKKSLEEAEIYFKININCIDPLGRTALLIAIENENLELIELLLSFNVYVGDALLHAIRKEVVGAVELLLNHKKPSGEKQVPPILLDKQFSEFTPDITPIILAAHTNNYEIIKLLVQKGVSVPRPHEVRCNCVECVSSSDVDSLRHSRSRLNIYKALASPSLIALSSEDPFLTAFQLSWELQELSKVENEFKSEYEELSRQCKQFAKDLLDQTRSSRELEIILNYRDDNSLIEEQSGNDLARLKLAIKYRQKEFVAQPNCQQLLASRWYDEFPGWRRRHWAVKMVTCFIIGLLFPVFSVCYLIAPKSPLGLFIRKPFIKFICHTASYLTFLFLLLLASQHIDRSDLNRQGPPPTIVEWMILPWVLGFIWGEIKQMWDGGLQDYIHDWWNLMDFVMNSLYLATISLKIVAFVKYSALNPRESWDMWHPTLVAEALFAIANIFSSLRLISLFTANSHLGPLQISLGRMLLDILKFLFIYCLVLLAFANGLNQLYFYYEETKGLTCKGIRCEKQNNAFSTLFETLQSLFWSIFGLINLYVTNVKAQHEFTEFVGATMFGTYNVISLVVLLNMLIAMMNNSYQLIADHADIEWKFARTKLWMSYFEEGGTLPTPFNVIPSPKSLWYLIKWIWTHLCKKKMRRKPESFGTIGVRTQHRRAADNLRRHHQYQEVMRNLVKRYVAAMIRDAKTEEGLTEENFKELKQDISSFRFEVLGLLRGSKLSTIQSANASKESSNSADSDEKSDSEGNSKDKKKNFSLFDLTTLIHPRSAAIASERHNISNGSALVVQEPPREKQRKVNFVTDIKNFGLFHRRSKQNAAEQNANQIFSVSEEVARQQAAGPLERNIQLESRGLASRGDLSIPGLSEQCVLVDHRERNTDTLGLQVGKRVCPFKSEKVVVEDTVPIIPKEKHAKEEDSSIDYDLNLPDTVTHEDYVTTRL
Assay: TRPC4 activity assay (FLIPR calcium fluorescence, HEK-TREx hTRPC4 cells)
Assay type: cell-based
Protocol: ICLN-1694 cells (HEK-TREx hTRPC4) expressing TRPC4 were generated as follows. Commercially available HekTrex-293 cells were seeded at 0.7×10^6 cells/well in a 1×6-well plate 24 hrs prior to transfection using 2 mL cell growth media containing no antibiotics (lx DMEM/high glucose (Hyclone #SH30022.02); 10% fetal bovine serum (Sigma) 2 mM sodium pyruvate, 10 mM HEPES). […] On day 2, 2 μg of plasmid DNA plus 6 μl of Xtreme-GENE HP reagent in Optimem (200 μl total volume) was prepared and incubated for 15 min at room temperature. This plasmid solution was then gently overlayed dropwise onto each well and the plate was gently swirled to mix complex with the media for approximately 30 seconds. Transfected cells were incubated at 37° C. in a 10% CO2 incubator for 24 hrs. The transfected cells were harvested and transferred into 2×150 mm dishes containing cell growth media with no antibiotics at 37° C.
The next day selection was initiated to generate a stable pool by adding cell growth media containing 150 μg/mL Hygromycin and 5 μg/mL Blasticidin and cells were allowed to grow. Media with the selection agent was changed every 1-2 days as needed to remove dead cells. After 7 days, the hygromycin concentration was reduced to 75 μg/mL and cells growth was allowed to continue.
Single clones were selected as follows. The stable pool was diluted to 10 cells/mL and seeded (100 μl/well) into 24×96 well plates (˜1 cell/well) and allowed to grow for 7 days in cell growth media. Fresh media (100 μl) was added and the cells allowed to grow for another 1-2 weeks and then stored frozen or used immediately.
10-point dose response curves were generated using the Echo-550 acoustic dispenser. Compound source plates were made by serially diluting compound stocks to create 10 mM, 1 mM, and 0.1 mM solutions in DMSO into Echo-certified LDV plates. The Echo then serially spotted 100% DMSO stock solutions into source dose response plates to generate a 4-fold dilution scheme. 100% DMSO was added to the spotted dose response plates to bring the final volume to 5 μl. 300 nl of the dose response stock plate was then spotted into pre-incubation and stimulation assay plates. 50 μl of pre-incubation buffer and 100 μl of stimulation buffer was then added to the plates resulting in a final assay test concentration range of 30 μM to 0.0001 μM with a final DMSO concentration of 0.3%.
ICLN-1694 cells (HEK-TREx hTRPC4) were plated onto 384 well, black pdl-coated microplates and maintained in cell growth media supplemented with 1 μg/mL tetracycline the day prior to use for experiments. TRPC4 expression was induced by the application of 1 μg/mL tetracycline at the time of plating. […] Cells were incubated at room temperature, protected from light, for 60-90 minutes. After the incubation period, the dye was removed and replaced with 10 μl of EBSS. Cell, pre-incubation and stimulation plates were loaded onto the FLIPR-II and the assay was initiated. The FLIPR measured a 10 second baseline and then added 10 μl of 2× compounds (or controls). Changes in fluorescence were monitored for an additional 5 minutes. After a 5 minute pre-incubation, 20 μl of 2× Englerin A (with 1× compound or controls) was added to the cell plate. The final Engerlin A stimulation concentration in the assay was 100 nM. After the Englerin A addition, changes in fluorescence were monitored for an additional 5 minutes.
Compound modulation of TRPC4 calcium response was determined as follows. After the Englerin A, fluorescence was monitored for a 5-minute period. The maximum relative fluorescence response (minus the control response of 1 μM of an internal control compound known to maximally block TRPC4 calcium response, the “REF INHIB” in the formula below) was captured and exported from the FLIPR.
Compound effect is calculated as % inhibition using the following formula: […]
wherein “RFU” is the relative fluorescent units.

[1] = Table 6, HEK-TREx hTRPC4, read-out: hTRPC4-FLIPR IC50
[2] = Table 5, HEK-TREx hTRPC4, read-out: TRPC4 FLIPR IC50
[3] = Table 7, HEK-TREx hTRPC4, read-out: TRPC4-FLIPR IC50

| SMILES | IC50 [1] | IC50 [2] | IC50 [3] |
| --- | --- | --- | --- |
| CC(c1ccc(F)cc1C(F)(F)F)N1CCN(c2cn[nH]c(=O)c2Cl)CC1=O (single isomer, unassigned) [MF] | 0.01 to 1000 nM |  |  |
| O=C1CN(c2cn[nH]c(=O)c2Cl)CCN1Cc1ccccc1C(F)(F)F [AO] |  | 0.01 to 1000 nM |  |
| CCc1ncccc1N(CC)C1CCN(c2cn[nH]c(=O)c2Cl)CC1 [LW, 4-chloro-5-[4-[ethyl(2-ethylpyridin-3-yl)amino]piperidin-1-yl]-2,3-dihydropyridazin-3-one] | 0.01 to 1000 nM | 0.01 to 1000 nM |  |
| CCc1ncccc1[C@H](C)N1CCN(c2cn[nH]c(=O)c2Cl)CC1 [LY, 4-chloro-5-[4-[(1S)-1-(2-ethylpyridin-3-yl)ethyl]piperazin-1-yl]-2,3-dihydropyridazin-3-one] | 0.01 to 1000 nM | 0.01 to 1000 nM |  |
| C[C@@H]1Cc2c(nnn2[C@H](C)c2ccccc2C(F)(F)F)CN1c1cn[nH]c(=O)c1Cl [MX, 4-chloro-5-[(6R)-6-methyl-1-[(1R)-1-[2-(trifluoromethyl)phenyl]ethyl]-1H,4H,5H,6H,7H-[1,2,3]triazolo[4,5-c]pyridin-5-yl]-2,3-dihydropyridazin-3-one] |  | 0.01 to 1000 nM | 0.01 to 1000 nM |

More lines, now with the values ahead:

| IC50 [1] | IC50 [2] | IC50 [3] | SMILES |
| --- | --- | --- | --- |
|  |  | 0.01 to 1000 nM | CN1CCN(C(=O)c2nn(Cc3ccccc3C(F)F)c3c2CN(c2cn[nH]c(=O)c2Cl)CC3)CC1 [OM] |
|  | 0.01 to 1000 nM | 0.01 to 1000 nM | NC(=O)c1nn(Cc2ccccc2C(F)(F)F)c2c1CN(c1cn[nH]c(=O)c1Cl)CC2 [OP, 5-(5-Chloro-6-oxo-1,6-dihydropyridazin-4-yl)-1-[[2-(trifluoromethyl)phenyl]methyl]-1H,4H,5H,6H,7H-pyrazolo[4,3-c]pyridine-3-carboxamide] |
|  |  | 0.01 to 1000 nM | CN1CCN(Cc2nn(Cc3ccccc3C(F)F)c3c2CN(c2cn[nH]c(=O)c2Cl)CC3)CC1 [OU, 4-Chloro-5-(1-[[2-(difluoromethyl)phenyl]methyl]-3-[(4-methylpiperazin-1-yl)methyl]-1H,4H,5H,6H,7H-pyrazolo[4,3-c]pyridin-5-yl)-2,3-dihydropyridazin-3-one] |
|  | 0.01 to 1000 nM | 0.01 to 1000 nM | CN(C)C(=O)c1nc2c(n1Cc1ccccc1C(F)(F)F)CCN(c1cn[nH]c(=O)c1Cl)C2 [PW] |
|  | 0.01 to 1000 nM | 0.01 to 1000 nM | CN(c1ncc2c(n1)CN(c1cn[nH]c(=O)c1Cl)C2)c1ccccc1C(F)(F)F [QM] |
